Measurements taken from ChEMBL document CHEMBL1759974, “Discovery of triazine-benzimidazoles as selective inhibitors of mTOR” (Bioorg Med Chem Lett, 2011).

What was measured:
[1] = target: Phosphatidylinositol 4,5-bisphosphate 3-kinase catalytic subunit gamma isoform (Homo sapiens, UniProt P48736)
[2] = target: T1, Serine/threonine-protein kinase mTOR (Homo sapiens, UniProt P42345)
[3] = target: T1, Serine/threonine-protein kinase mTOR; remark: listed apart in the source
[4] = target: T1, Serine/threonine-protein kinase mTOR; remark: listed apart in the source
Description: Inhibition of mTOR in human U-87 cells assessed as inhibition of phosphorylation of AKT at S473

[5] = target: T2, Phosphatidylinositol 4,5-bisphosphate 3-kinase catalytic subunit delta isoform (Homo sapiens, UniProt O00329)
T2 sequence (O00329 whole entry): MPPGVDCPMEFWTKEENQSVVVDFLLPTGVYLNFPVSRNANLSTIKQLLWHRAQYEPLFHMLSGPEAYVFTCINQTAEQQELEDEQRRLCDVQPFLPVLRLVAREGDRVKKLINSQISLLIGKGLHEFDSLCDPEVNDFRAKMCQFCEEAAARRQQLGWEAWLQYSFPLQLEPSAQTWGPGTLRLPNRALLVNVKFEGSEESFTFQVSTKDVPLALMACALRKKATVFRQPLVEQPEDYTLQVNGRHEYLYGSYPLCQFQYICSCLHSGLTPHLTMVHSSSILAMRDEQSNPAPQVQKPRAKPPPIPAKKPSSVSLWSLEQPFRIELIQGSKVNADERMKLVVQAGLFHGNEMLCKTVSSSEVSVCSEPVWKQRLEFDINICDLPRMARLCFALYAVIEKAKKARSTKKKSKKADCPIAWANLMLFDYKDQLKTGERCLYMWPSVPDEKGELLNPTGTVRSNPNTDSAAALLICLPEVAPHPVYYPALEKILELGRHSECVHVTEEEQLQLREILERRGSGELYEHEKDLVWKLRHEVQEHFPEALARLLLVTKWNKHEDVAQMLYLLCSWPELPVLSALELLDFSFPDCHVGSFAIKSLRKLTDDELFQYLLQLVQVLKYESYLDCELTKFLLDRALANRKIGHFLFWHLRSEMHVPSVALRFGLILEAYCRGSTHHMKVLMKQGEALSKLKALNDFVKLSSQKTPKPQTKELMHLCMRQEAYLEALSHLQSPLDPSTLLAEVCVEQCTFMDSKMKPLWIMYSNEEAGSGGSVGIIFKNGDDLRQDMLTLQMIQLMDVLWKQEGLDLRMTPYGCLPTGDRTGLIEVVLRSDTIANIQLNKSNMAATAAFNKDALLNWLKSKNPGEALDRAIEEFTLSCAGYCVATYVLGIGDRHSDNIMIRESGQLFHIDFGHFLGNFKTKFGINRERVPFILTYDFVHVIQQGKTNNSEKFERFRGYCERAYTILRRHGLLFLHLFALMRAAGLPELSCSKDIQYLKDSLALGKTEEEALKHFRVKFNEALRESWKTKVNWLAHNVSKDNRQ

[6] = target: Phosphatidylinositol 4,5-bisphosphate 3-kinase catalytic subunit beta isoform (Homo sapiens, UniProt P42338)
Sequence of Phosphatidylinositol 4,5-bisphosphate 3-kinase catalytic subunit beta isoform (P42338 whole entry, canonical isoform): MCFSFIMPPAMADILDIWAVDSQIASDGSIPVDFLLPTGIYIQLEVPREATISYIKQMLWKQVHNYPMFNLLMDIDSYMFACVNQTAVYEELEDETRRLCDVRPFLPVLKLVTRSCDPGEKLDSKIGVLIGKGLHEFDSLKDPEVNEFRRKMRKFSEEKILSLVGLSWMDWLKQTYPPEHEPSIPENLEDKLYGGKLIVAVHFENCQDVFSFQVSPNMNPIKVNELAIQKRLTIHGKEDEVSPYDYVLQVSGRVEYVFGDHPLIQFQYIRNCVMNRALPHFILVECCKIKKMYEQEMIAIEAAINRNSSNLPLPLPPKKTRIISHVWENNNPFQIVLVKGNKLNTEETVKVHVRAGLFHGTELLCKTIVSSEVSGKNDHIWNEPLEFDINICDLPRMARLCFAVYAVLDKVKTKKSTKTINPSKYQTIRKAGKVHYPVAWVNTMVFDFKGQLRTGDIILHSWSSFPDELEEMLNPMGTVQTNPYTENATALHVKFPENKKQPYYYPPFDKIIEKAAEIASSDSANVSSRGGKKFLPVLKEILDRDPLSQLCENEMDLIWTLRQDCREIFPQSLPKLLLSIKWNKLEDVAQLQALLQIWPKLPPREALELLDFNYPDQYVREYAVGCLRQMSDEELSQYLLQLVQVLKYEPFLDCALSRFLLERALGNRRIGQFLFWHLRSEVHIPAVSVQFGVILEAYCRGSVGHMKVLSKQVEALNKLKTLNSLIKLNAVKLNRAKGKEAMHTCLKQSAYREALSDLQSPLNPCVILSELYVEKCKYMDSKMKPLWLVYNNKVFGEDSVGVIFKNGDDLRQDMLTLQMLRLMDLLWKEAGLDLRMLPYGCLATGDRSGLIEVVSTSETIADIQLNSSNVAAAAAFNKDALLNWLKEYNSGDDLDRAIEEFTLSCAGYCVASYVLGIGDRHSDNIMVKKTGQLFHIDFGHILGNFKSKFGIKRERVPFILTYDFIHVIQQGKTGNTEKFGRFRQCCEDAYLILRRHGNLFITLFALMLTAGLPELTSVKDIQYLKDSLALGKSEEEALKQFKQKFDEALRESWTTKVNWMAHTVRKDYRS

[7] = target: Phosphatidylinositol 4,5-bisphosphate 3-kinase catalytic subunit alpha isoform (Homo sapiens, UniProt P42336)
Sequence of Phosphatidylinositol 4,5-bisphosphate 3-kinase catalytic subunit alpha isoform (P42336 whole entry, canonical isoform): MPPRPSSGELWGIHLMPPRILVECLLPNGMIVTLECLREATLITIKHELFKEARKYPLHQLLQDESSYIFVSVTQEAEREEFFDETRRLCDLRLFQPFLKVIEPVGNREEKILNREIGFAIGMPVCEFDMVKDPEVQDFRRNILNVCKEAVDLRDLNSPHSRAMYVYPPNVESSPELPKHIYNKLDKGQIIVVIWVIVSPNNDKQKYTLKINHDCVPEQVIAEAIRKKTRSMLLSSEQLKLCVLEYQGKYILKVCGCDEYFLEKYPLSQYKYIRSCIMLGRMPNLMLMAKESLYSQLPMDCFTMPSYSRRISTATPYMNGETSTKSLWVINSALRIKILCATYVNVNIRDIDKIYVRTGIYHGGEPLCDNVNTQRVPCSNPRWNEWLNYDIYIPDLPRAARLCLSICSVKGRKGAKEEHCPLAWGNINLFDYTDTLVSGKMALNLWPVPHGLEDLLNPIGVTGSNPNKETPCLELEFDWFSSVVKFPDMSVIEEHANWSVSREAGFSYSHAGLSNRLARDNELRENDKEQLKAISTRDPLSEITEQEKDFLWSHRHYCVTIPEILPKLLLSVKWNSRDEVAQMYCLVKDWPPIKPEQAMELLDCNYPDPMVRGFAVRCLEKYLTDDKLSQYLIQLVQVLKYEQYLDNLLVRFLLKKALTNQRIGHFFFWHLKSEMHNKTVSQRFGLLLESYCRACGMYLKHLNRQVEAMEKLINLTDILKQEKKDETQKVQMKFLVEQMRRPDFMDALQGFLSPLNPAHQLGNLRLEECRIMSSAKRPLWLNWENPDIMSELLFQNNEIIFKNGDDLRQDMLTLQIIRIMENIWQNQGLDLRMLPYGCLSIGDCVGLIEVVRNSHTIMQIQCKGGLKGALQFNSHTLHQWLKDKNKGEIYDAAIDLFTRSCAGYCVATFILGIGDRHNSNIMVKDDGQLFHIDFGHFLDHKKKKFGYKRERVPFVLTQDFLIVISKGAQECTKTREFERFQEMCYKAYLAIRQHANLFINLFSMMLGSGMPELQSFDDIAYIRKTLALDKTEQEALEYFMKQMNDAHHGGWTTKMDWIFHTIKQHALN

[8] = Clearance in Sprague-Dawley rat at 1 mg/kg, iv and 2 mg/kg, po; assay type: ADME, organism-based; conditions: in vivo
[9] = Volume of distribution at steady state in Sprague-Dawley rat at 1 mg/kg, iv and 2 mg/kg, po; assay type: ADME, organism-based; conditions: in vivo, read-out: Vdss
Rattus norvegicus = assay: AUC in Sprague-Dawley rat at 1 mg/kg, iv; assay type: ADME, organism-based, Plasma; parameters: dose 1 mg/kg, route intravenous; conditions: in vivo
[10] = Half life in Sprague-Dawley rat at 1 mg/kg, iv; assay type: ADME, organism-based; parameters: dose 1 mg/kg, route intravenous; conditions: in vivo
[11] = Oral bioavailability in Sprague-Dawley rat at 2 mg/kg; assay type: ADME, organism-based; conditions: in vivo
[12] = Plasma protein binding in Sprague-Dawley rat at 1 mg/kg, iv and 2 mg/kg, po; assay type: ADME, organism-based; conditions: read-out: PPB (converted)
[13] = Intrinsic clearance in rat liver microsomes; assay type: ADME, Microsome
[14] = Intrinsic clearance in human liver microsomes; assay type: ADME, Microsome
[15] = target: Casein kinase II subunit alpha (Homo sapiens) (UniProt P68400); assay: Inhibition of CSNK2A1 at 1 uM relative to control
Sequence of Casein kinase II subunit alpha (Homo sapiens) (P68400 whole entry, looked up): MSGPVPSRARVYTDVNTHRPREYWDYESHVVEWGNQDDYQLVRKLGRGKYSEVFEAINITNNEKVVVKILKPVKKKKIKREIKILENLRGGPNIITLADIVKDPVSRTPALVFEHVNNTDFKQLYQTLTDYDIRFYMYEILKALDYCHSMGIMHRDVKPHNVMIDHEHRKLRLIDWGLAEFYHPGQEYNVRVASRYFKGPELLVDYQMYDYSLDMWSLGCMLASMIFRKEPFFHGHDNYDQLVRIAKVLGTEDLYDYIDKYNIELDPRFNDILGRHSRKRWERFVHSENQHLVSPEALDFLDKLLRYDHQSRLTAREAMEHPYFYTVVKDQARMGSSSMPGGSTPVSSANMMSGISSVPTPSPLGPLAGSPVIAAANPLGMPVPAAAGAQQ

[16] = target: Receptor-type tyrosine-protein kinase FLT3 (Homo sapiens) (UniProt P36888); assay: Inhibition of FLT3 at 1 uM relative to control
Sequence of Receptor-type tyrosine-protein kinase FLT3 (Homo sapiens) (P36888 whole entry): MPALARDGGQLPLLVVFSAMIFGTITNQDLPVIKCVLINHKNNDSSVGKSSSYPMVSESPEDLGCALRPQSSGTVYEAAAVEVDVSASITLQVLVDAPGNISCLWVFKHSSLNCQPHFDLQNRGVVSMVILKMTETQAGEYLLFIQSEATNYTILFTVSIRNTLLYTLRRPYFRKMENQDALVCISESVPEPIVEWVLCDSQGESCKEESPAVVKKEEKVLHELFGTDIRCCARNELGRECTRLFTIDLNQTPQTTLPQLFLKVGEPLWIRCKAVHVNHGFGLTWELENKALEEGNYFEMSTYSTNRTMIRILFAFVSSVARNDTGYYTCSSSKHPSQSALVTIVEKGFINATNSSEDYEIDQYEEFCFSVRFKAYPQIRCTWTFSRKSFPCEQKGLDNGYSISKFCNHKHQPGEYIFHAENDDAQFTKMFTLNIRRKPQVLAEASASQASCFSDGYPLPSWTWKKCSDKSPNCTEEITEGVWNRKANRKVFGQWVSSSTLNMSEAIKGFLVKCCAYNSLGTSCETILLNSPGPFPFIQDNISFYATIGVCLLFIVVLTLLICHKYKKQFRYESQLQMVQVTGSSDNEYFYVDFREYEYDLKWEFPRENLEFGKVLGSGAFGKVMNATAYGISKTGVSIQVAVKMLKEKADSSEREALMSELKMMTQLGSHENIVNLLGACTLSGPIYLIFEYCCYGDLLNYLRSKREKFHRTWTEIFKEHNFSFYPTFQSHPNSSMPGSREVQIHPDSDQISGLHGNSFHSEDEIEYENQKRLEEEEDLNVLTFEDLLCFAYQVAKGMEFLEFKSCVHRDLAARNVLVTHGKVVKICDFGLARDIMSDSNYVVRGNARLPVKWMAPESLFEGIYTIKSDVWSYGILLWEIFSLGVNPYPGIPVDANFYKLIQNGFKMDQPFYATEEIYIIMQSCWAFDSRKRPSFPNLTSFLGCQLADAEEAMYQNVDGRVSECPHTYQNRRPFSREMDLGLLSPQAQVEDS

Sequence of Phosphatidylinositol 4,5-bisphosphate 3-kinase catalytic subunit gamma isoform (P48736 whole entry, canonical isoform): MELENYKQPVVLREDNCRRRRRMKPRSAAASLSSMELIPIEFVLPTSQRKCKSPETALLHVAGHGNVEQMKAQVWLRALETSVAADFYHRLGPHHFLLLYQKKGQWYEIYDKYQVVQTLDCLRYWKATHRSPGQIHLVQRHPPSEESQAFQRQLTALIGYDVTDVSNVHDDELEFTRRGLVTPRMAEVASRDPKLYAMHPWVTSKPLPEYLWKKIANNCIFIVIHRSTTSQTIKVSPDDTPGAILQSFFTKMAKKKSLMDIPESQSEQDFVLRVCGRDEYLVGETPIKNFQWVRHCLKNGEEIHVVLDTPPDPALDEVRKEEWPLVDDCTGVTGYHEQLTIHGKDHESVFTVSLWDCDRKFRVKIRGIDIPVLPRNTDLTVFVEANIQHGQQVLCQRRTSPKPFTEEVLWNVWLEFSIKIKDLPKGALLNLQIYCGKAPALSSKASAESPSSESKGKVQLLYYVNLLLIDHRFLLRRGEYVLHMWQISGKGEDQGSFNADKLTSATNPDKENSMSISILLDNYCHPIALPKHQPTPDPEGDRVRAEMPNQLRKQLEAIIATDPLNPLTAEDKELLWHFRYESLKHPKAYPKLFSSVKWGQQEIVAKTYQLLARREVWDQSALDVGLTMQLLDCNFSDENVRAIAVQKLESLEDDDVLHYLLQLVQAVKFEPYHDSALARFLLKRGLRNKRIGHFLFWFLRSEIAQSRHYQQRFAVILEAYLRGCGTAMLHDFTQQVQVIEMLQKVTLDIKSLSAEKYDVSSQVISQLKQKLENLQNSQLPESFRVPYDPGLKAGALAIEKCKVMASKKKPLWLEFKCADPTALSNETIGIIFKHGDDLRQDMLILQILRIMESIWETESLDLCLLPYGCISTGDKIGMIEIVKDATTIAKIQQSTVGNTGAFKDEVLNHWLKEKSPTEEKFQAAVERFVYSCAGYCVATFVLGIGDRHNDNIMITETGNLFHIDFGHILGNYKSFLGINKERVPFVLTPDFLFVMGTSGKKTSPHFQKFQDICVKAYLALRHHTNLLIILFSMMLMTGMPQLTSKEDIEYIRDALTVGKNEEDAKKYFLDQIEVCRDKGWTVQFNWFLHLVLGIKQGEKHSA

SMILES | IC50 [1] [nM] | IC50 [2] [nM] | IC50 [3] [nM] | IC50 [4] [nM] | IC50 [5] [nM] | IC50 [6] [nM] | IC50 [7] [nM] | clearance [8] [mL/min/kg] | Vd [9] [L/kg] | AUC (Rattus norvegicus) [nM] | half-life [10] [min] | bioavailability [11] [%] | fraction unbound [12] | microsomal CLint [13] [µL/min/mg] | microsomal CLint [14] [µL/min/mg] | inhibition [15] [%] | inhibition [16] [%]
Cc1nc(N)nc(-n2c(Nc3ccc4cn[nH]c4c3)nc3ccccc32)n1 | 200 | 1500 | 27 | 120 | 320 | 630 | 200 | – | – | – | – | – | – | – | – | – | –
Oc1cccc(Nc2nc3ccccc3n2-c2ncnc(NCC(F)(F)F)n2)c1 | – | > 25000 | > 50000 | 3200 | – | – | 3600 | – | – | – | – | – | – | – | – | – | –
Cc1nc(N)nc(-n2c(Nc3ccnn3C)nc3ccccc32)n1 | 2300 | > 25000 | > 50000 | 540 | 3300 | 6900 | 1900 | – | – | – | – | – | – | – | – | – | –
COc1nc(NCC#N)nc(-n2c(Nc3cccc(O)c3)nc3ccccc32)n1 | – | 21500 | > 50000 | 2100 | – | – | 520 | – | – | – | – | – | – | – | – | – | –
CCCc1nc(N)nc(-n2c(Nc3cccc(O)c3)nc3ccccc32)n1 | – | > 25000 | 4700 | 2640 | – | – | 3500 | – | – | – | – | – | – | – | – | – | –
CCc1nc(N)nc(-n2c(Nc3cccc(O)c3)nc3ccccc32)n1 | – | 6300 | 390 | 410 | – | – | 340 | – | – | – | – | – | – | – | – | – | –
Cc1nc(N)nc(-n2c(Nc3ccccc3)nc3ccccc32)n1 | 470 | > 25000 | 420 | 190 | 360 | 1000 | 260 | – | – | – | – | – | – | – | – | – | –
COc1ncnc(-n2c(Nc3cccc(O)c3)nc3ccccc32)n1 | – | > 25000 | > 50000 | 1900 | – | – | 1700 | – | – | – | – | – | – | – | – | – | –
Cc1nc(N)nc(-n2c(Nc3cc(O)cc(O)c3)nc3ccccc32)n1 | 5 | 97 | 0.2 | 5 | 0.4 | 0.2 | 0.6 | – | – | – | – | – | – | – | – | – | –
Nc1cc(-n2c(Nc3cccc(O)c3)nc3ccccc32)ncn1 | – | 3500 | 110 | 420 | – | – | 1000 | – | – | – | – | – | – | – | – | – | –
Cc1nc(N)nc(-n2c(Nc3ccon3)nc3ccccc32)n1 | 2300 | 3300 | 150 | 260 | 1300 | 3100 | 840 | 30 | 1.4 | 1930 | 30 | – | 0.023 | 46 | 39 | – | –
CNC(=O)c1ccc(Nc2nc3ccccc3n2-c2nc(C)nc(N)n2)o1 | 26 | > 25000 | 150 | 680 | 140 | 1800 | 520 | – | – | – | – | – | – | – | – | – | –
Cc1nc(N)cc(-n2c(Nc3cccc(O)c3)nc3ccccc32)n1 | – | 1200 | 87 | 43 | – | – | 42 | – | – | – | – | – | – | – | – | – | –
Cc1nc(N)nc(-n2c(Nc3ccn(C(F)F)n3)nc3ccccc32)n1 | 860 | 6500 | 340 | 770 | 530 | 22300 | 10400 | – | – | – | – | – | – | – | – | – | –
Cc1nc(N)nc(-n2c(Nc3cccc(C(N)=O)c3)nc3ccccc32)n1 | 480 | 3900 | 175 | 190 | 40 | 1030 | 290 | – | – | – | – | – | – | – | – | – | –
Cc1nc(N)nc(-n2c(NC3CCOCC3)nc3ccccc32)n1 | 30 | > 25000 | 21400 | 680 | 710 | 2400 | 1600 | – | – | – | – | – | – | – | – | – | –
CNC(=O)Nc1ccc(Nc2nc3ccccc3n2-c2nc(C)nc(N)n2)cc1 | 13 | 340 | 2 | 11 | 11 | 17 | 6 | – | – | – | – | – | – | – | – | – | –
CNc1ncnc(-n2c(Nc3cccc(O)c3)nc3ccccc32)n1 | – | 2900 | 250 | 180 | – | – | 190 | – | – | – | – | – | – | – | – | – | –

More lines, now with the values ahead:

IC50 [1] [nM] | IC50 [2] [nM] | IC50 [3] [nM] | IC50 [4] [nM] | IC50 [5] [nM] | IC50 [6] [nM] | IC50 [7] [nM] | clearance [8] [mL/min/kg] | Vd [9] [L/kg] | AUC (Rattus norvegicus) [nM] | half-life [10] [min] | bioavailability [11] [%] | fraction unbound [12] | microsomal CLint [13] [µL/min/mg] | microsomal CLint [14] [µL/min/mg] | inhibition [15] [%] | inhibition [16] [%] | SMILES
250 | 340 | 24 | 45 | 110 | 1000 | – | 50 | 3 | 964 | 42 | 6 | 0.01 | – | – | – | – | Cc1nc(N)nc(-n2c(Nc3ccn[nH]3)nc3cc(F)c(F)cc32)n1
– | 710 | 21 | 34 | – | – | 130 | – | – | – | – | – | – | – | – | – | – | Nc1ncnc(-n2c(Nc3cccc(O)c3)nc3ccccc32)n1
340 | 960 | 28 | 140 | 240 | 1000 | 230 | – | – | – | – | – | – | – | – | – | – | Cc1nc(N)nc(-n2c(Nc3ccc4cc[nH]c4c3)nc3ccccc32)n1
– | 380 | 8 | 17 | – | – | 32 | – | – | – | – | – | – | – | – | – | – | Cc1nc(NCC#N)nc(-n2c(Nc3cccc(O)c3)nc3ccccc32)n1
610 | 5300 | 190 | 180 | 690 | 1000 | 460 | – | – | – | – | – | – | – | – | – | – | Cc1nc(N)nc(-n2c(Nc3cn[nH]c3)nc3ccccc32)n1
– | > 25000 | 2300 | 870 | – | – | 720 | – | – | – | – | – | – | – | – | – | – | Oc1cccc(Nc2nc3ccccc3n2-c2ncnc(Nc3ccccc3)n2)c1
– | 8900 | 370 | 600 | – | – | 370 | – | – | – | – | – | – | – | – | – | – | Cc1nccc(-n2c(Nc3cccc(O)c3)nc3ccccc32)n1
– | > 25000 | 21000 | 2400 | – | – | 3600 | – | – | – | – | – | – | – | – | – | – | Oc1cccc(Nc2nc3ccccc3n2-c2ncnc(NCc3ccccn3)n2)c1
190 | 4200 | 60 | 250 | 270 | 420 | 960 | – | – | – | – | – | – | – | – | – | – | Cc1nc(N)nc(-n2c(Nc3n[nH]c4ccccc34)nc3ccccc32)n1
– | > 25000 | 3000 | 1600 | – | – | 2000 | – | – | – | – | – | – | – | – | – | – | Oc1cccc(Nc2nc3ccccc3n2-c2ncncn2)c1
– | > 25000 | 33100 | 4600 | – | – | – | – | – | – | – | – | – | – | – | – | – | Cc1nc(N)nc(-n2c(Nc3nc[nH]n3)nc3ccccc32)n1
20 | 340 | 13 | 180 | 71 | 410 | 23 | – | – | – | – | – | – | – | – | – | – | CC(=O)Nc1ccc(Nc2nc3ccccc3n2-c2nc(C)nc(N)n2)cc1
110 | 1500 | 290 | 120 | 890 | 1400 | 630 | – | – | – | – | – | – | – | – | – | – | CC(=O)Nc1cccc(Nc2nc3ccccc3n2-c2nc(C)nc(N)n2)c1
3700 | 1400 | 80 | 150 | 4600 | 3700 | 4000 | – | – | – | – | – | – | – | – | – | – | C#CCNc1nc(C)nc(-n2c(Nc3ccn[nH]3)nc3ccccc32)n1
8 | 150 | 7 | 9 | 3 | 9 | 4 | – | – | – | – | – | – | – | – | 15 | 14 | Cc1nc(N)nc(-n2c(Nc3cccc(O)c3)nc3ccccc32)n1
4100 | 5300 | 270 | 580 | 4600 | 28800 | 6200 | – | – | – | – | – | – | – | – | – | – | Cc1nc(N)nc(-n2c(Nc3ccn(C)n3)nc3ccccc32)n1
